BindingDB's records for doi:10.1021/jm011053+ (Institut De Chimie Pharmaceutique Albert Lespagnol, 2002)
pKi: −log10 of the molar value.

Assay: Inhibition of 2-[125I]iodomelatonin binding to Melatonin receptor 3 (MT3) of Syrian hamster brain membrane

First: COc1ccc2[nH]cc(CCNC(C)=O)c2c1[N+](=O)[O-] [N-(2-(5-methoxy-4-nitro-1H-indol-3-yl)ethyl)acetamide]
Second: COc1ccc2c(c(CCNC(C)=O)cn2C)c1[N+](=O)[O-] [N-[2-(5-Methoxy-1-methyl-4-nitro-1H-indol-3-yl)-ethyl]-acetamide]
The pKi of the first is 0.55 log units lower: 8.96 for the first, 9.51 for the second.

`COc1ccc2c(c1)c(CCNC(C)=O)cn2C` [N-[2-(5-Methoxy-1-methyl-1H-indol-3-yl)-ethyl]-acetamide] gave a pKi of 8.55.
